Results on 41 compounds are retold here after patent US11370784B2 (MISSION THERAPEUTICS LIMITED, priority 2016, dated 2022).

Bounds are passed on as bounds.

The target of the assay is USP30 (Homo sapiens (Human), UniProt Q70CQ3). Nature of the assay: USP30 biochemical IC50 assay. The settings on record: fluorescence polarisation, TAMRA labelled peptide linked to ubiquitin as substrate; enzyme and compound incubated 30 min at room temp; read-out: IC50 range. How it is done: Reactions were performed in duplicate in black 384 well plates (small volume, Greiner 784076) in a final reaction volume of 21 μl. Either 1 μl of 50% DMSO or diluted compound was added to the plate. USP30 was diluted in reaction buffer (40 mM Tris, pH 7.5, 0.005% Tween 20, 0.5 mg/ml BSA, 5 mM beta-mercaptoethanol) to the equivalent of 0.05 μl/well and 10 μl of diluted USP30 was added to the compound. Enzyme and compound were incubated for 30 min at room temp. Reactions were initiated by the addition of 50 nM of TAMRA labelled peptide linked to ubiquitin via an iso-peptide bond as fluorescence polarisation substrate. Reactions were read immediately after addition of substrate and following a 2 h incubation at room temperature. Readings were performed on a Pherastar Plus (BMG Labtech). λ Excitation 540 nm; λ Emission 590 nm.
Sequence of USP30 (Q70CQ3 57-517): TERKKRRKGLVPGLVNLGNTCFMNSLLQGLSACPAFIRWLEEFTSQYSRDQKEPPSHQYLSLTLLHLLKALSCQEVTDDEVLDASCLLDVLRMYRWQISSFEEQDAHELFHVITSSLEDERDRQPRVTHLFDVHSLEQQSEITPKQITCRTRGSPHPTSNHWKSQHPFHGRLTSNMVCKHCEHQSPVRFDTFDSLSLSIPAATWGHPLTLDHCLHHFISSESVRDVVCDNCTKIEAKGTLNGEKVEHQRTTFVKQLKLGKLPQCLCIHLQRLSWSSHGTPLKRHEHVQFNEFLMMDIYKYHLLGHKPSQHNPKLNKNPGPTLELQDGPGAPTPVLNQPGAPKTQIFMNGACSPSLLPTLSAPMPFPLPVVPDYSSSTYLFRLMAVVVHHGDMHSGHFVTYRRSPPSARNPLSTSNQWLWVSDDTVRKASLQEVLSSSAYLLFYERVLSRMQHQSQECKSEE
A general note: Polarisation of emitted light reports the rotation of a fluorescent probe.
Usually IC50 stands for the midpoint of a concentration-inhibition curve. Regarding `N#CN1CCOC(C(=O)Nc2cc(-c3cccc(C(F)(F)F)c3)no2)C1` (racemic) [Example 19, 4-Cyano-N-(3-(3-(trifluoro-methyl)phenyl)isoxazol-5-yl)morpholine-2-carboxamide], the concentration for half-maximal inhibition (IC50) lay in the range of 100 to 1000 nM.

Take `N#Cc1cccc(-c2ccnc(NC(=O)C3(F)CCCN(C#N)C3)c2)c1` (racemic) [Example 47, 1-Cyano-N-(4-(3-cyanophenyl)pyridin-2-yl)-3-fluoropiperidine-3-carboxamide]: the concentration for half-maximal inhibition (IC50) lay in the range of 1000 to 10000 nM.

For `N#CN1CCCC(F)(C(=O)Nc2ccc(-c3ccn[nH]3)cn2)C1` (racemic) [Example 49, N-(5-(1H-Pyrazol-5-yl)pyridin-2-yl)-1-cyano-3-fluoropiperidine-3-carboxamide], the half-maximal inhibitory concentration (IC50) was in the range of 100 to 1000 nM.

For the compound `N#CN1CCC[C@](F)(C(=O)Nc2cn(-c3cccc(C(F)(F)F)c3)cn2)C1` (stereo in doubt) [Example 80, 1-Cyano-3-fluoro-N-(1-(3-(trifluoromethyl)phenyl)-1H-imidazol-4-yl)piperidine-3-carboxamide], the IC50 lay within 100 to 1000 nM.

On to `N#CN1CCC[C@](F)(C(=O)Nc2cn(-c3cccc(OC(F)(F)F)c3)cn2)C1` (stereo in doubt) [Example 81, 1-Cyano-3-fluoro-N-(1-(3-(trifluoromethoxy)phenyl)-1H-imidazol-4-yl)piperidine-3-carboxamide], for which the IC50 was in the range of 100 to 1000 nM.

In the case of `N#CN1CCO[C@@H](C(=O)Nc2cc(-c3ccccc3)ccn2)C1` [Example 1, (R)-4-cyano-N-(4-phenylpyridin-2-yl)morpholine-2-carboxamide], the IC50 fell in the range of 100 to 1000 nM.

For the compound `N#CN1CCOC(C(=O)Nc2ncc(-c3ccc(F)cc3)s2)C1` (centres unmarked) [Example 2, 4-Cyano-N-(5-(4-fluorophenyl)thiazol-2-yl)morpholine-2-carboxamide], the 50% inhibitory concentration (IC50) lay in the range of 100 to 1000 nM.

As for `CCCOc1cc(NC(=O)C2CN(C#N)CCO2)ccc1-c1ccn[nH]1` (centres unmarked) [Example 3, 4-Cyano-N-(3-propoxy-4-(1H-pyrazol-5-yl)phenyl)morpholine-2-carboxamide], the half-maximal inhibitory concentration (IC50) lay in the range of 100 to 1000 nM.

Consider `N#Cc1cccc(-c2cc(NC(=O)[C@H]3CN(C#N)CCO3)ncn2)c1` [Example 4, (R)-4-Cyano-N-(6-(3-cyanophenyl)pyrimidin-4-yl)morpholine-2-carboxamide], for which the 50% inhibitory concentration (IC50) was less than 100 nM.

With `Cn1cc(-c2ccc(NC(=O)C3CN(C#N)CCO3)cc2)cn1` (centres unmarked) [Example 5, 4-Cyano-N-(4-(1-methyl-1H-pyrazol-4-yl)phenyl)morpholine-2-carboxamide], the 50% inhibitory concentration (IC50) was in the range of 1000 to 10000 nM.

In the case of `N#CN1CCOC(C(=O)Nc2nc3ccc(-c4cn[nH]c4)cc3s2)C1` (centres unmarked) [Example 7, N-(6-(1H-Pyrazol-4-yl)benzo[d]thiazol-2-yl)-4-cyanomorpholine-2-carboxamide], the IC50 fell in the range of 100 to 1000 nM.

Regarding `N#CN1CCOC(C(=O)Nc2ccc(-c3ccccc3)cc2)C1` (centres unmarked) [Example 9, N-([1,1′-Biphenyl]-4-yl)-4-ycanomorpholine-2-carboxamide], the IC50 was 1000 to 10000 nM.

Take `COc1cccc(-c2cc(NC(=O)C3CN(C#N)CCO3)on2)c1` (centres unmarked) [Example 10, 4-Cyano-N-(3-(3-methoxyphe-nyl)isoxazol-5-yl)morpholine-2-carboxamide]: the concentration for half-maximal inhibition (IC50) was 1000 to 10000 nM.

For `N#CN1CCOC(C(=O)Nc2cc(-c3ccccc3)[nH]n2)C1` (centres unmarked) [Example 11, 4-Cyano-N-(5-phenyl-1H-pyrazol-3-yl)morpholine-2-carboxamide], the 50% inhibitory concentration (IC50) lay in the range of 1000 to 10000 nM.

Consider `N#CN1CCOC(C(=O)Nc2ccc(-c3ccccc3)cn2)C1` (centres unmarked) [Example 12, 4-Cyano-N-(5-phenylpyridin-2-yl)morpholine-2-carboxamide], for which the half-maximal inhibitory concentration (IC50) lay within 1000 to 10000 nM.

For the compound `N#CN1CCOC(C(=O)Nc2cc(-c3ccccc3)on2)C1` (centres unmarked) [Example 13, 4-Cyano-N-(5-phenylisoxazol-3-yl)morpholine-2-carboxamide], the IC50 was 1000 to 10000 nM.

In the case of `N#Cc1ccnc(-c2ccnc(NC(=O)C3CN(C#N)CCO3)c2)c1` (centres unmarked) [Example 14, 4-Cyano-N-(4-cyano-[2,4′-bipyridin]-2′-yl)morpholine-2-carboxamide], the IC50 lay in the range of 1000 to 10000 nM.

With `N#CN1CCOC(C(=O)Nc2ccc(-c3ccccc3)nc2)C1` (centres unmarked) [Example 17, 4-Cyano-N-(6-phenylpyridin-3-yl)morpholine-2-carboxamide], the concentration for half-maximal inhibition (IC50) lay within 1000 to 10000 nM.

Turning to `N#Cc1cc(-c2ccnc(NC(=O)C3CN(C#N)CCO3)c2)ccn1` (centres unmarked) [Example 18, 4-Cyano-N-(2′-cyano-[4,4′-bipyridin]-2-yl)morpholine-2-carboxamide], the concentration for half-maximal inhibition (IC50) lay in the range of 100 to 1000 nM.

`N#CN1CCO[C@@H](C(=O)Nc2ncc(-c3ccccc3)s2)C1` [Example 20, (R)-4-Cyano-N-(5-phenylthiazol-2-yl)morpholine-2-carboxamide]: the IC50 fell in the range of 100 to 1000 nM.

On to `N#CN1CCO[C@@H](C(=O)Nc2cc(-c3cccc(Cl)c3)ncn2)C1` [Example 21, (R)-N-(6-(3-Chlorophenyl)-pyrimidin-4-yl)-4-cyanomorpholine-2-carboxamide], for which the concentration for half-maximal inhibition (IC50) lay in the range of 100 to 1000 nM.

With `COc1cccc(-c2cc(NC(=O)[C@H]3CN(C#N)CCO3)ncn2)c1` [Example 22, (R)-4-Cyano-N-(6-(3-methoxy-phenyl)pyrimidin-4-yl)morpholine-2-carboxamide], the IC50 lay within 1000 to 10000 nM.

Regarding `CC(C)Oc1cccc(-c2cc(NC(=O)[C@H]3CN(C#N)CCO3)ncn2)c1` [Example 23, (R)-4-Cyano-N-(6-(3-isopropoxy-phenyl)pyrimidin-4-yl)morpholine-2-carboxamide], the IC50 fell in the range of 1000 to 10000 nM.

As to `N#Cc1cc(F)cc(-c2cc(NC(=O)[C@H]3CN(C#N)CCO3)ncn2)c1` [Example 24, (R)-4-Cyano-N-(6-(3-cyano-5-fluoro-phenyl)pyrimidin-4-yl)morpholine-2-carboxamide], the half-inhibitory concentration (IC50) is 100 to 1000 nM.

With `N#Cc1ccc(-c2cc(NC(=O)[C@H]3CN(C#N)CCO3)ncn2)cc1` [Example 25, (R)-4-Cyano-N-(6-(4-cyanophenyl)pyrimidin-4-yl)morpholine-2-carboxamide], the concentration for half-maximal inhibition (IC50) fell in the range of 1000 to 10000 nM.

In the case of `N#CN1CCO[C@@H](C(=O)Nc2cc(-c3ccc(Cl)cc3)ncn2)C1` [Example 26, (R)-N-(6-(4-Chlorophenyl)-pyrimidin-4-yl)-4-cyanomorpholine-2-carboxamide], the IC50 lay within 100 to 1000 nM.

Turning to `N#CN1CCO[C@@H](C(=O)Nc2cc(-c3cccc(C(N)=O)c3)ncn2)C1` [Example 27, (R)-N-(6-(3-Carbamoylphenyl)-pyrimidin-4-yl)-4-cyanomorpholine-2-carboxamide], the IC50 was in the range of 1000 to 10000 nM.

In the case of `N#CN1CCO[C@@H](C(=O)Nc2cnc(-c3ccccc3)s2)C1` [Example 28, (R)-4-Cyano-N-(2-phenylthiazol-5-yl)morpholine-2-carboxamide], the IC50 was in the range of 1000 to 10000 nM.

Take `N#CN1CCO[C@@H](C(=O)Nc2ccc(-c3ccn[nH]3)cn2)C1` [Example 29, (R)-N-(5-(1H-Pyrazol-5-yl)pyridin-2-yl)-4-cyanomorpholine-2-carboxamide]: the half-maximal inhibitory concentration (IC50) was in the range of 1000 to 10000 nM.

As for `N#CN1CCO[C@@H](C(=O)Nc2cc(-c3cccc4[nH]ncc34)ncn2)C1` [Example 30, (R)-N-(6-(1H-indazol-4-yl)pyrimidin-4-yl)-4-cyanomorpholine-2-carboxamide], the IC50 fell in the range of 1000 to 10000 nM.

As to `N#CN1CCO[C@@H](C(=O)Nc2cc3cc(-c4cn[nH]c4)ccc3cn2)C1` [Example 31, (R)-N-(6-(1H-Pyrazol-4-yl)isoquinolin-3-yl)-4-cyanomorpholine-2-carboxamide], the IC50 was 1000 to 10000 nM.

In the case of `N#CN1CCO[C@H](C(=O)Nc2ncc(-c3ccccc3)s2)C1` [Example 33, (S)-4-Cyano-N-(5-phenylthiazol-2-yl)morpholine-2-carboxamide], the half-inhibitory concentration (IC50) was in the range of 1000 to 10000 nM.

For the compound `N#CN1CCO[C@H](C(=O)Nc2cc(-c3ccccc3)ccn2)C1` [Example 35, (S)-4-Cyano-N-(4-phenylpyridin-2-yl)morpholine-2-carboxamide], the 50% inhibitory concentration (IC50) lay in the range of 1000 to 10000 nM.

As for `CCCOc1cc(NC(=O)C2CCCN(C#N)C2)ccc1-c1ccn[nH]1` (centres unmarked) [Example 36, 1-Cyano-N-(3-propoxy-4-(1H-pyrazol-5-yl)phenyl)piperidine-3-carboxamide], the IC50 was in the range of 100 to 1000 nM.

As for `N#CN1CCCC(C(=O)Nc2cc(-c3ccccc3)[nH]n2)C1` (centres unmarked) [Example 38, 1-Cyano-N-(5-phenyl-1H-pyrazol-3-yl)piperidine-3-carboxamide], the IC50 lay within 1000 to 10000 nM.

Turning to `N#CN1CCCC(C(=O)Nc2ccc(-c3ccccc3)cn2)C1` (centres unmarked) [Example 39, 1-Cyano-N-(5-phenylpyridin-2-yl)piperidine-3-carboxamide], the IC50 lay in the range of 1000 to 10000 nM.

Take `N#CN1CCCC(C(=O)Nc2cc(-c3ccccc3)ccn2)C1` (centres unmarked) [Example 40, 1-Cyano-N-(4-phenylpyridin-2-yl)piperidine-3-carboxamide]: the IC50 was in the range of 1000 to 10000 nM.

As to `N#CN1CCCC(C(=O)Nc2cc(-c3ccccc3)no2)C1` (centres unmarked) [Example 41, 1-Cyano-N-(3-phenylisoxazol-5-yl)piperidine-3-carboxamide], the half-maximal inhibitory concentration (IC50) is 1000 to 10000 nM.

`N#CN1CCCC(F)(C(=O)Nc2ncc(-c3ccccc3)s2)C1` (centres unmarked) [Example 42, 1-Cyano-3-fluoro-N-(5-phenylthiazol-2-yl)piperidine-3-carboxamide]: the IC50 lay within 100 to 1000 nM.

For `N#CN1CCCC(F)(C(=O)Nc2cn(-c3ccccc3)cn2)C1` (centres unmarked) [Example 43, 1-Cyano-3-fluoro-N-(1-phenyl-1H-imidazol-4-yl)piperidine-3-carboxamide], the concentration for half-maximal inhibition (IC50) lay within 100 to 1000 nM.

Turning to `N#CN1CCCC(F)(C(=O)Nc2cc(-c3ccccc3)on2)C1` (centres unmarked) [Example 45, 1-Cyano-3-fluoro-N-(5-phenylisoxazol-3-yl)piperidine-3-carboxamide], the 50% inhibitory concentration (IC50) was in the range of 100 to 1000 nM.
